# In patent US8143374B2, “Polypeptide derivatives of parathyroid hormone (PTH)” (The General Hospital Corporation, priority 2006, dated 2012):
# Where “and” joins values, the source holds several entries; their conditions need not be identical. Equal values may be shown once. Read-outs that look alike come from different tables or passages of the source. Where a SMILES comes first, the peptide text is derived from it. Where no end group is shown, it is not given here. [ ]: non-standard residue; d: D form. Apa = (S)-2-amino-4[(2-amino)pyrimidinyl]methylalanine; Phe(4-guanidino) = N=C(N)Nc1ccc(C[C@H](N)C(=O)O)cc1; Cha = N[C@@H](CC1CCCCC1)C(=O)O; Orn = NCCC[C@H](N)C(=O)O
# Molecular target: T1, PTHR-delNt (Homo sapiens, UniProt Q03431, DEL24-181)
# T1 construct: expressed in transfected cells; host or cells: COS-7 cells, transient co-transfection; membranes prepared
# T1 sequence (Q03431 with tags, fused parts or gaps DEL24-181): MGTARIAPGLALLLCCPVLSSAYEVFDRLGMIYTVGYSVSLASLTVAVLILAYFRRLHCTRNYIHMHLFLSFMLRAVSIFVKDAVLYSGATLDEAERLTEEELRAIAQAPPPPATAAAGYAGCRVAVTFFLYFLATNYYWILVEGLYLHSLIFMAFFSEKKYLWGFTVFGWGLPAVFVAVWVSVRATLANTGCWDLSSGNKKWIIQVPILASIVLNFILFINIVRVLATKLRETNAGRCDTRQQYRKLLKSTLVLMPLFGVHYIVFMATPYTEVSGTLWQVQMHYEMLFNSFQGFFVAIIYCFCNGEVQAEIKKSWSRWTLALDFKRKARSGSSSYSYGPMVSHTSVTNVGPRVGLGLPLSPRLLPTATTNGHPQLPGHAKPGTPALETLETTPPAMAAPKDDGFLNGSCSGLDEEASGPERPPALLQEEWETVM
# Assay: Competition binding in COS-7 cell membranes with 125I-[Aib1,3,M]PTH(1-15)NH2 tracer
# Conditions: for reduction (alteration) of binding affinity for PTHR-delNt relative to parent peptide: versus the respective parent peptide; for IC50: COS-7 membranes cotransfected with negative-dominant Gαs
# How it was run: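 Membranes (20 µg/well) from COS-7 cells co-transfected with human PTHR lacking residues 24–181 plus dominant-negative Gαs, incubated 90 min at 21 °C with 125I-[Aib1,3,M]PTH(1-15)NH2 and unlabeled peptide (3×10^−9 to 1×10^−5 M), then filtered and gamma-counted. Non-specific binding with 1×10^−6 M [Aib1,3,M]PTH(1-15)NH2; IC50 by four-parameter logistic fit, extrapolated to reference maximal inhibition where incomplete.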
# [1] = [Ala1,Arg19]hPTH(1-31)NH2 analogs, read-out: PTHR-delNT (COS-7) IC50
# [2] = hPTH(1-31)NH2 analogs, read-out: PTHR-delNT (COS-7) IC50
Compound,reduction (alteration) of binding affinity for PTHR-delNt relative to parent peptide (COS-7 membranes),IC50 [2] [µM],further results
"CC[C@H](C)[C@H](NC(=O)[C@H](CCC(=O)O)NC(=O)[C@H](CO)NC(=O)[C@@H](NC(=O)[C@H](C)N)C(C)C)C(=O)N[C@@H](CCC(N)=O)C(=O)N[C@@H](CC(C)C)C(=O)N[C@@H](CCSC)C(=O)N[C@@H](Cc1c[nH]cn1)C(=O)N[C@@H](CC(N)=O)C(=O)N[C@@H](CC(C)C)C(=O)NCC(=O)N[C@@H](CCCCN)C(=O)N[C@@H](Cc1c[nH]cn1)C(=O)N[C@@H](CC(C)C)C(=O)N[C@@H](CC(N)=O)C(=O)N[C@@H](CO)C(=O)N[C@@H](CCSC)C(=O)N[C@@H](CCCNC(=N)N)C(=O)N[C@@H](CC1CCCCC1)C(=O)N[C@H](C(=O)N[C@@H](CCC(=O)O)C(=O)N[C@@H](Cc1c[nH]c2ccccc12)C(=O)N[C@@H](CC(C)C)C(=O)N[C@@H](CCCNC(=N)N)C(=O)N[C@@H](CCCCN)C(=O)N[C@@H](CCCCN)C(=O)N[C@@H](CC(C)C)C(=O)N[C@@H](CCC(N)=O)C(=O)N[C@@H](CC(=O)O)C(=O)N[C@H](C(N)=O)C(C)C)C(C)C [Arg^20→Cha, AlaValSerGluIleGlnLeuMetHisAsnLeuGlyLysHisLeuAsnSerMetArgChaValGluTrpLeuArgLysLysLeuGlnAspVal] (H-AVSEIQLMHNLGKHLNSMR[Cha]VEWLRKKLQDV-NH2; N-terminus assumed)",three-fold or less,,IC50 [1]: 0.632 ± 0.079 µM
CC[C@H](C)[C@H](NC(=O)[C@H](CCC(=O)O)NC(=O)[C@H](CO)NC(=O)[C@@H](NC(=O)[C@H](C)N)C(C)C)C(=O)N[C@@H](CCC(N)=O)C(=O)N[C@@H](CC(C)C)C(=O)N[C@@H](CCSC)C(=O)N[C@@H](Cc1c[nH]cn1)C(=O)N[C@@H](CC(N)=O)C(=O)N[C@@H](CC(C)C)C(=O)NCC(=O)N[C@@H](CCCCN)C(=O)N[C@@H](Cc1c[nH]cn1)C(=O)N[C@@H](CC(C)C)C(=O)N[C@@H](CC(N)=O)C(=O)N[C@@H](CO)C(=O)N[C@@H](CCSC)C(=O)N[C@@H](CCCNC(=N)N)C(=O)N[C@@H](CCCNC(=N)N)C(=O)N[C@H](C(=O)N[C@@H](CCC(=O)O)C(=O)N[C@@H](Cc1c[nH]c2ccccc12)C(=O)N[C@@H](CC(C)C)C(=O)N[C@@H](CCCNC(=N)N)C(=O)N[C@@H](CCCCN)C(=O)N[C@@H](CCCCN)C(=O)N[C@@H](CC(C)C)C(=O)N[C@@H](CCC(N)=O)C(=O)N[C@@H](CC1CCCCC1)C(=O)N[C@H](C(N)=O)C(C)C)C(C)C [Asp^30→Cha] (H-AVSEIQLMHNLGKHLNSMRRVEWLRKKLQ[Cha]V-NH2; N-terminus assumed),,,IC50 [1]: 0.305 ± 0.126 µM
AVSEIQLMHNLGKHLNSMERVEWLRKKLQDV-NH2 [Arg^19→Glu],50 fold and 90 fold,,
AVSEIQLMHNLGKHLNSMRREEWLRKKLQDV-NH2 [Val^21→Glu],about four-fold,,"IC50 (PTHR-delNT (COS-7) IC50, [Ala1,Arg19]hPTH(1-31)NH2 analogs): 1.61 µM"
AVSEIQLMHNLGKHLNSMRRVEWERKKLQDV-NH2 [Leu^24→Glu],less than three-fold,,effect on binding to PTHR-delNt (in words) (COS-7 membranes): only mildly impaired binding to PTHR-delNt; IC50 [1]: 1.04 µM
AVSEIQLMHNLGKHLNSMRRVEWLEKKLQDV-NH2 [Arg^25→Glu],about four-fold,,IC50 [1]: 1.63 µM
AVSEIQLMHNLGKHLNSMRRVEWLREKLQDV-NH2 [Lys^26→Glu],,,IC50 [1]: 0.832 ± 0.215 µM
AVSEIQLMHNLGKHLNSMRRVEWLRKELQDV-NH2 [Lys^27→Glu],,,IC50 [1]: 1.27 µM
SVSEIQLMHNLGKHLNSMEAVEWLRKKLQDV-NH2 [Arg^20→Ala],approximate five-fold reduction,19.3,
SVSEIQLMHNLGKHLNSMEEVEWLRKKLQDV [Arg^20→Glu],less than three-fold,14.7,"reduction (alteration) of binding affinity for PTHR-delNt relative to parent peptide (COS-7 membranes, listed as Arg^20 to Glu substitution in PTH(1-31)NH2): approximately four-fold reduction; IC50 [1]: 0.776 ± 0.38 µM"
SVSEIQLMHNLGKHLNSMEKVEWLRKKLQDV-NH2 [Arg^20→Lys],,7.11,
SVSEIQLMHNLGKHLNSMEQVEWLRKKLQDV-NH2 [Arg^20→Gln],,10.3,
SVSEIQLMHNLGKHLNSMERVAWLRKKLQDV-NH2 [Glu^22→Ala],,5.86,
SVSEIQLMHNLGKHLNSMERVEALRKKLQDV-NH2 [Trp^23→Ala],only two-fold,7.36,
SVSEIQLMHNLGKHLNSMERVEWARKKLQDV-NH2 [Leu^24→Ala],only two-fold,8.76,
SVSEIQLMHNLGKHLNSMERVEWLAKKLQDV-NH2 [Arg^25→Ala],,7.18,
SVSEIQLMHNLGKHLNSMERVEWLRAKLQDV-NH2 [Lys^26→Ala],,6.21,
SVSEIQLMHNLGKHLNSMERVEWLRKALQDV-NH2 [Lys^27→Ala],,7.29,

# Second part, led by results:
reduction (alteration) of binding affinity for PTHR-delNt relative to parent peptide (COS-7 membranes),IC50 [2] [µM],Compound,further results
,2.05,CC[C@H](C)[C@H](NC(=O)[C@H](CCC(=O)O)NC(=O)[C@H](CO)NC(=O)[C@@H](NC(=O)[C@@H](N)CO)C(C)C)C(=O)N[C@@H](CCC(N)=O)C(=O)N[C@@H](CC(C)C)C(=O)N[C@@H](CCSC)C(=O)N[C@@H](Cc1c[nH]cn1)C(=O)N[C@@H](CC(N)=O)C(=O)N[C@@H](CC(C)C)C(=O)NCC(=O)N[C@@H](CCCCN)C(=O)N[C@@H](Cc1c[nH]cn1)C(=O)N[C@@H](CC(C)C)C(=O)N[C@@H](CC(N)=O)C(=O)N[C@@H](CO)C(=O)N[C@@H](CCSC)C(=O)N[C@@H](CCC(=O)O)C(=O)N[C@@H](Cc1ccc(NC(=N)N)cc1)C(=O)N[C@H](C(=O)N[C@@H](CCC(=O)O)C(=O)N[C@@H](Cc1c[nH]c2ccccc12)C(=O)N[C@@H](CC(C)C)C(=O)N[C@@H](CCCNC(=N)N)C(=O)N[C@@H](CCCCN)C(=O)N[C@@H](CCCCN)C(=O)N[C@@H](CC(C)C)C(=O)N[C@@H](CCC(N)=O)C(=O)N[C@@H](CC(=O)O)C(=O)N[C@H](C(N)=O)C(C)C)C(C)C [Arg^20→Gph] (H-SVSEIQLMHNLGKHLNSME[Phe(4-guanidino)]VEWLRKKLQDV-NH2; N-terminus assumed),
,5.53,CC[C@H](C)[C@H](NC(=O)[C@H](CCC(=O)O)NC(=O)[C@H](CO)NC(=O)[C@@H](NC(=O)[C@@H](N)CO)C(C)C)C(=O)N[C@@H](CCC(N)=O)C(=O)N[C@@H](CC(C)C)C(=O)N[C@@H](CCSC)C(=O)N[C@@H](Cc1c[nH]cn1)C(=O)N[C@@H](CC(N)=O)C(=O)N[C@@H](CC(C)C)C(=O)NCC(=O)N[C@@H](CCCCN)C(=O)N[C@@H](Cc1c[nH]cn1)C(=O)N[C@@H](CC(C)C)C(=O)N[C@@H](CC(N)=O)C(=O)N[C@@H](CO)C(=O)N[C@@H](CCSC)C(=O)N[C@@H](CCC(=O)O)C(=O)N[C@@H](CCCN)C(=O)N[C@H](C(=O)N[C@@H](CCC(=O)O)C(=O)N[C@@H](Cc1c[nH]c2ccccc12)C(=O)N[C@@H](CC(C)C)C(=O)N[C@@H](CCCNC(=N)N)C(=O)N[C@@H](CCCCN)C(=O)N[C@@H](CCCCN)C(=O)N[C@@H](CC(C)C)C(=O)N[C@@H](CCC(N)=O)C(=O)N[C@@H](CC(=O)O)C(=O)N[C@H](C(N)=O)C(C)C)C(C)C [Arg^20→Orn] (H-SVSEIQLMHNLGKHLNSME[Orn]VEWLRKKLQDV-NH2; N-terminus assumed),
,5.74,Arg^20→Apa: hPTH(1-31)NH2 analog with Arg^20 replaced by (S)-2-amino-4[(2-amino)pyrimidinyl]methylalanine (Apa) (SVSEIQLMHNLGKHLNSME[Apa]VEWLRKKLQDV-NH2),
,0.619 ± 0.075,"SVSEIQLMHNLGKHLNSMARVAWLRKKLQDV-NH2 [Glu^19,22→Ala,Ala]",
,2.94,SVSEIQLMHNLGKHLNSMARVEWLRKKLQDV-NH2 [Glu^19→Ala],
,5.69,SVSEIQLMHNLGKHLNSMERAEWLRKKLQDV-NH2 [Val^21→Ala],
,3.46,SVSEIQLMHNLGKHLNSMERVEWLRKKAQDV-NH2 [Leu^28→Ala],
,1.93,SVSEIQLMHNLGKHLNSMERVEWLRKKLADV-NH2 [Gln^29→Ala],
,4.91,SVSEIQLMHNLGKHLNSMERVEWLRKKLQDA-NH2 [Val^31→Ala],
,0.36 ± 0.019,"SVSEIQLMHNLGKHLNSMRRVAWLRKKLQDV-NH2 [Glu^19,22→Arg,Ala]",
,1.23,SVSEIQLMHNLGKHLNSMRRVEWLRKKLQDV-NH2 [Glu^19→Arg],
